The nature of data set [1]: Dynamic moisture sorption assessment. The data set is classed as physicochemical. The procedure: In one embodiment, crystalline form 1′ is characterized by the DMS isotherm in FIG. 4. This form is a non-hygroscopic solid. The total moisture gain observed is less than 1% by weight when exposed to between 5% and 90% relative humidity. No significant hysteresis is found between consecutive sorption-desorption cycles.
DMS measurements were performed using a VTI atmospheric microbalance, SGA-100 system (VTI Corp., Hialeah, Fla. 33016). A weighed sample was used and the humidity was lowest possible value (close to 0% relative humidity) at the start of the analysis. The DMS analysis consisted of a scan rate of 5% relative humidity/step over the full humidity range of 5-90%. The DMS run was performed isothermally at 25° C.

A short description of data set [2]: Accelerated stability study of calcium salt crystals (Example 7). The data set is classed as physicochemical. From the text:
One challenge in pharmaceutical drug development relates to discovering a stable, crystalline form of a drug having a reasonably high melting point. The challenge of the present invention was that crystals of the free acid of Compound 1 could not be obtained. Furthermore, many crystal screens failed, with the exception of two-arginine and calcium crystals of (2S,4R)-5-(5′-chloro-2′-fluorobiphenyl-4-yl)-4-(ethoxyoxalylamino)-2-hydroxymethyl-2-methylpentanoic acid were obtained. However, the arginine crystals (see Example 1) were deliquescent at ambient conditions and were difficult to develop further. On the other hand, the calcium crystals were stable and melted around 239° C. For that reason, an accelerated stability study of Compound 1′ was conducted at the temperatures and % relative humidity (RH) reported below.

The next data set concerns the target T1, Rat NEP (Rattus norvegicus, UniProt P07861).
T1 construct: leaving a viscous oily precipitate containing the enriched membrane fraction; from tissue; host or cells: kidneys of adult Sprague Dawley rats (Triton X-114 enriched membrane fraction)
T1 sequence (P07861 1-750): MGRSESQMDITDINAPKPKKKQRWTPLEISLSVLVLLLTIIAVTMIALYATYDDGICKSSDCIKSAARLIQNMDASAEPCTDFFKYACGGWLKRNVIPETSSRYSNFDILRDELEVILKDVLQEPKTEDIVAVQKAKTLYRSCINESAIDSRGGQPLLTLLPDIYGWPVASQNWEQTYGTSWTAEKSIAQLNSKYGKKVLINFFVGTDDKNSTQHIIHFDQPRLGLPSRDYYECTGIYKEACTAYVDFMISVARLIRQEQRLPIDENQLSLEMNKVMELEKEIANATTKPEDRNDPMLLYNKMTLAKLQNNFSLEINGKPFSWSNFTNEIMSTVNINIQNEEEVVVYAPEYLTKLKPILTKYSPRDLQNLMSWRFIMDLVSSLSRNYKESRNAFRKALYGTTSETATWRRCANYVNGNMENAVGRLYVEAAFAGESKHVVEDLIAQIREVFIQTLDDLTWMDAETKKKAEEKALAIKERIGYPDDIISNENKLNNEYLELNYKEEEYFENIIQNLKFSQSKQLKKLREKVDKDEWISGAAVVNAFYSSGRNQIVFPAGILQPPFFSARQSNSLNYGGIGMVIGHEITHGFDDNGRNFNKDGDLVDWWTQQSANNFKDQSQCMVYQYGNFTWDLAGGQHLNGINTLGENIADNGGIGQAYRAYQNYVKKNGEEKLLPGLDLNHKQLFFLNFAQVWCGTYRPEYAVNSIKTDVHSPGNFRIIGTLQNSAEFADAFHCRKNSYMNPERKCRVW
The experiment in a line: In vitro enzyme inhibition assay, rat NEP (Assay 1). The format is biochemical. The note with it: NEP from rat kidneys; read-out: rat pKi (converted). As for the experimental part:
(§1) The inhibitory activities at human and rat neprilysin (EC 3.4.24.11; NEP) were determined using in vitro assays as described below.
Rat NEP was prepared from the kidneys of adult Sprague Dawley rats. Whole kidneys were washed in cold phosphate buffered saline (PBS) and brought up in ice-cold lysis buffer (1% Triton X-114, 150 mM NaCl, 50 mM tris(hydroxymethyl) aminomethane (Tris) pH 7.5; Bordier (1981) J. Biol. Chem. 256: 1604-1607) in a ratio of 5 mL of buffer for every gram of kidney. Samples were homogenized on ice using a polytron hand held tissue grinder. Homogenates were centrifuged at 1000×g in a swinging bucket rotor for 5 minutes at 3° C. The pellet was resuspended in 20 mL of ice cold lysis buffer and incubated on ice for 30 minutes. Samples (15-20 mL) were then layered onto 25 mL of ice-cold cushion buffer (6% w/v sucrose, 50 mM pH 7.5 Tris, 150 mM NaCl, 0.06%, Triton X-114), heated to 37° C. for 3-5 minutes and centrifuged at 1000×g in a swinging bucket rotor at room temperature for 3 minutes. The two upper layers were aspirated off, leaving a viscous oily precipitate containing the enriched membrane fraction. Glycerol was added to a concentration of 50% and samples were stored at −20° C. Protein concentrations were quantitated using a BCA detection system with bovine serum albumin (BSA) as a standard.
(§2) The assays were performed in 384-well white opaque plates at 37° C. using the fluorogenic peptide substrate at a concentration of 10 μM in Assay Buffer (50 mM HEPES, pH 7.5, 100 mM NaCl, 0.01% polyethylene glycol sorbitan monolaurate (Tween-20), 10 μM ZnSO4).
(§3) Test compounds were assayed over the range of concentrations from 10 μM to 20 pM. Test compounds were added to the enzyme and incubated for 30 minute at 37° C. prior to initiating the reaction by the addition of substrate. Reactions were terminated after 20 minutes of incubation at 37° C. by the addition of glacial acetic acid to a final concentration of 3.6% (v/v).
(§4) Plates were read on a fluorometer with excitation and emission wavelengths set to 320 nm and 405 nm, respectively. Inhibition constants were obtained by nonlinear regression of the data using the equation (GraphPad Software, Inc., San Diego, Calif.): v=v0/[1+(I/K′)] where v is the reaction rate, v0 is the uninhibited reaction rate, I is the inhibitor concentration and K′ is the apparent inhibition constant.

Data set [3] in a line: IV/PO pharmacokinetic study in rats (Assay 3). The data set is classed as in vivo. Particulars: male, Sprague-Dawley, plasma, rat, read-out: AUClast Mean. The procedure:
(§5) Each rat or dog pharmacokinetic study began with formulation of the test compound. Appropriate masses of each test compound were added into a volume of vehicle (e.g. 5% sodium bicarbonate, 5% dextrose in water) such that the final concentration of each compound was appropriate to be dosed at 2 mL/kg. Although a homogenous suspension were acceptable for oral dosing, intravenous dosing solutions were sterile-filtered (0.2 μm) prior to dosing to ensure no particulates were administered.
In the rat study, pre-cannulated male Sprague-Dawley rats (3 per route) between 8 and 10 weeks of age were obtained from Harlan Laboratories (Indianapolis, Ind.). Rats received either a single oral gavage or a single intravenous (via lateral tail vein) dose of the dosing solution. The final dose was typically 0.5-3 mg/kg. Serial blood samples were harvested via the cannula implanted in the jugular vein at 3 minutes, 15 minutes, 30 minutes, 1 hour, 2 hours, 4 hours, 6 hours, and 24 hours post-dose. Sampling was performed either manually or using automated blood samplers. Samples were collected into microtainer tubes containing sodium fluoride, potassium oxalate and paraoxon, and were processed to plasma by refrigerated centrifugation.
(§6) Plasma samples were extracted with 3 volumes of MeCN containing a suitable internal standard. Extracts were reconstituted into 3 volumes of water containing 1% formic acid, and analyzed via HPLC-coupled MS/MS. Plasma concentration-time data were analyzed using the Phoenix software (Pharsight Corp., St. Louis, Mo.) to calculate pharmacokinetic parameters.

A short description of data set [4]: IV/PO pharmacokinetic study in dogs (Assay 3). The data set is classed as in vivo. Particulars: male, beagle, plasma, dog, read-out: AUClast Mean. The procedure: as §5
In the dog study, male beagle dogs (3 per route) housed at Agilux Laboratories (Worcester, Mass.) and weighing between 7-12 kg received either a single oral gavage or a single intravenous (via indwelling catheter) dose of the dosing solution. The final dose was typically 0.1-2 mg/kg. Serial blood samples were harvested via direct venipuncture at 3 minutes, 15 minutes, 30 minutes, 1 hour, 2 hours, 4 hours, 6 hours, 8 hours, 12 hours, and 24 hours post-dose. All samples were collected manually into microtainer tubes containing sodium fluoride, potassium oxalate and paraoxon, and were processed to plasma by refrigerated centrifugation.
as §6

In the next data set the target is NEP (Homo sapiens, UniProt P08473). The experiment in a line: In vitro enzyme inhibition assay, human NEP (Assay 1). Details: purchased R&D Systems 1182-ZN. The note with it: read-out: human pKi (converted). The data set is classed as biochemical. The procedure: as §1
Recombinant human NEP was obtained commercially (R&D Systems, Minneapolis, Minn., catalog number 1182-ZN). The fluorogenic peptide substrate Mca-D-Arg-Arg-Leu-Dap-(Dnp)-OH (Medeiros et al. (1997) Braz. J. Med. Biol. Res. 30:1157-62; Anaspec, San Jose, Calif.) was used.
as §2, §3, §4

Where [5] appears, read: IV, analyte = compound dosed (active metabolite).
Where [6] appears, read: PO, analyte = compound dosed (prodrug).

Molecules are shown by their SMILES.

NEP, sequence (P08473 52-750 limits assumed): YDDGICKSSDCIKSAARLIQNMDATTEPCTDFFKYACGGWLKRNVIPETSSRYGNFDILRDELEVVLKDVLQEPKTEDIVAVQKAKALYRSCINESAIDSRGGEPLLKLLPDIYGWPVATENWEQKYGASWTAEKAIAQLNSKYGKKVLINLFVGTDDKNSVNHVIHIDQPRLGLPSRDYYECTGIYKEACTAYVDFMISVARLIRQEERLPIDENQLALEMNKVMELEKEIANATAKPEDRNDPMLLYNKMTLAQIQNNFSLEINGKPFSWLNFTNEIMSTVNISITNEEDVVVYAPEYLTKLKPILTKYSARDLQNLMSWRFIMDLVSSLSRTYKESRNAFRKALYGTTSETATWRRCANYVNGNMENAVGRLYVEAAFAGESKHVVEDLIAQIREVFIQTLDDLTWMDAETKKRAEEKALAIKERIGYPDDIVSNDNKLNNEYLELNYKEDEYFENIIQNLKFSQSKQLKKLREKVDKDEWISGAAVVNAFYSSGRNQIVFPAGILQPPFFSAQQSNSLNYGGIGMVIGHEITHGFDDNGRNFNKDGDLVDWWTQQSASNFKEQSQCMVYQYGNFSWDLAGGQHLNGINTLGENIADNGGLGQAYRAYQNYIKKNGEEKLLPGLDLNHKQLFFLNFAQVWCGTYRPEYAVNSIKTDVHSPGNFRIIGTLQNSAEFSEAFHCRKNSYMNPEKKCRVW

Regarding `CCOC(=O)C(=O)N[C@H](Cc1ccc(-c2cc(Cl)ccc2F)cc1)C[C@@](C)(CO)C(=O)O` [Compound 1′, Calcium (2S,4R)-5-(5′-Chloro-2′-fluoro-[1,1′-biphenyl]-4-yl)-4-(2-ethoxy-2-oxoacetamido)-2-(hydroxymethyl)-2-methylpentanoate], the “hygroscopicity (in words)” value in data set [1] (DMS isotherm) is on record as “non-hygroscopic”. Moreover, the total moisture gain result in data set [1] (between 5% and 90% relative humidity, 25° C.) is listed as “less than 1 % by weight”. Besides, the Assay in data set [2] (5° C., 0 months) was 95.0 % (w/w); in data set [2] (5° C., 2 months), 93.4 % (w/w); in data set [2] (5° C., 3 months) it was 92.4 % (w/w); in data set [2] (25° C., 60% RH, 0 months), 95.0 % (w/w); in data set [2] (25° C., 60% RH, 2 months), 94.4 % (w/w); in data set [2] (25° C., 60% RH, 3 months) it was 92.9 % (w/w). In addition, the Assay in data set [2] (40° C., 75% RH, 0 months) is listed as 95.0 % (w/w); in data set [2] (40° C., 75% RH, 1 month) it was 95.5 % (w/w); in data set [2] (40° C., 75% RH, 2 months), 92.1 % (w/w); in data set [2] (40° C., 75% RH, 3 months), 92.1 % (w/w). In addition, the Purity is on record as 97.3 % (a/a) in data set [2] (5° C., 0 months); 97.6 % (a/a) in data set [2] (5° C., 2 months); 97.5 % (a/a) in data set [2] (5° C., 3 months); 97.3 % (a/a) in data set [2] (25° C., 60% RH, 0 months); 97.3 % (a/a) in data set [2] (25° C., 60% RH, 2 months); 96.8 % (a/a) in data set [2] (25° C., 60% RH, 3 months). Also, the Purity is recorded as 97.3 % (a/a) in data set [2] (40° C., 75% RH, 0 months); 95.9 % (a/a) in data set [2] (40° C., 75% RH, 1 month); 95.3 % (a/a) in data set [2] (40° C., 75% RH, 2 months); 93.9 % (a/a) in data set [2] (40° C., 75% RH, 3 months). Also, the “stability (in words)” value in data set [2] (up to at least three months at the temperatures and relative humidity tested) is “relatively stable”.

Take `O=C(O)C(=O)N[C@H](Cc1ccc(-c2cc(Cl)ccc2F)cc1)C[C@@H](O)C(=O)O` [Comparison Compound C6, (2R,4R)-5-(5′-Chloro-T-fluorobiphenyl-4-yl)-2-hydroxy-4-(oxalylamino)pentanoic Acid]: the Ki at Rat NEP is 0.158 nM; at NEP it was 0.2 nM. Moreover, the results for the AUC(0-t) in data set [3] (setting [5]) and in data set [4] (setting [5]) were 15000 ng·h/mL and 1280 ng·h/mL, respectively.

As for `CCOC(=O)[C@](C)(CO)C[C@@H](Cc1ccc(-c2cc(Cl)ccc2F)cc1)NC(=O)C(=O)O` [Comparison Compound C3, (2S,4R)-5-(5′-Chloro-2′-fluorobiphenyl-4-yl)-2-hydroxymethyl-2-methyl-4-(oxalylamino)pentanoic Acid Ethyl Ester], the Ki on Rat NEP was 2000 nM; at NEP it was 3980 nM. The figures for the AUC(0-t) in data set [3] (setting [6]) and in data set [4] (setting [6]) were 560 ng·h/mL and 950 ng·h/mL, respectively.

For `CCOC(=O)[C@H](O)C[C@@H](Cc1ccc(-c2cc(Cl)ccc2F)cc1)NC(=O)C(=O)O` [Comparison Compound C4, (2R,4R)-5-(5′-Chloro-2′-fluorobiphenyl-4-yl)-2-hydroxy-4-(oxalylamino)pentanoic Acid Ethyl Ester], the Ki on Rat NEP is 7.94 nM; on NEP it was 15.8 nM. Also, the AUC(0-t) in data set [3] (setting [6]) was 40 ng·h/mL; in data set [4] (setting [6]), 480 ng·h/mL.

`CCOC(=O)C(=O)N[C@H](Cc1ccc(-c2cc(Cl)ccc2F)cc1)C[C@@H](O)C(=O)O` [Comparison Compound C5, (2R,4R)-5-(5′-Chloro-T-fluorobiphenyl-4-yl)-4-(ethoxyoxalylamino)-2-hydroxypentanoic Acid]: the Ki on Rat NEP and on NEP was 0.2 nM in each case. Moreover, the AUC(0-t) in data set [4] (setting [6]) is 29 ng·h/mL.

The values are drawn from patent publication US9868698B2, “(2S,4R)-5-(5′-chloro-2′-fluorobiphenyl-4-yl)-4-(ethoxyoxalylamino)-2-hydroxymethyl-2-methylpentanoic acid” (THERAVANCE BIOPHARMA R&D IP, LLC, priority 2015, dated 2018).
